The target in assay [1] is EGFR del19/T790M/C797S (Homo sapiens, UniProt P00533, C797S/DEL746-750/T790M). As to the kind of experiment: Biochemical EGFR kinase assay (Lance Ultra TR-FRET), triple mutant del19/T790M/C797S. The procedure, abridged: (§1)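 Enzyme reactions lasted 1 hour at room temperature with test compounds between 0.003 and 10 μM, followed by 10 mM EDTA quench.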
A general note: Time-resolved FRET reads energy transfer from a long-lived donor to a nearby acceptor.

The target in assay [2] is EGFR L858R/T790M/C797S (Homo sapiens, UniProt P00533, C797S/L858R/T790M). Kind of assay: Biochemical EGFR kinase assay (Lance Ultra TR-FRET), triple mutant L858R/T790M/C797S. The procedure, abridged:
as §1

Assay [3] addresses EGFR del19/C797S (Homo sapiens, UniProt P00533, C797S/DEL746-750). Kind of assay: Biochemical EGFR kinase assay (Lance Ultra TR-FRET), double mutant del19/C797S. The procedure, abridged: as §1
Assay [4] concerns the target EGFR L858R/C797S (Homo sapiens, UniProt P00533, C797S/L858R). As to the kind of experiment: Biochemical EGFR kinase assay (Lance Ultra TR-FRET), double mutant L858R/C797S. Summed up: as §1
Assay [5] addresses EGFR wildtype (Homo sapiens, UniProt P00533). As to the kind of experiment: Biochemical EGFR kinase assay (Lance Ultra TR-FRET), wildtype. Summed up:
as §1

The mark [6] stands for this setting: IC50 del19/T790M/C797S, 100 μM ATP.
Setting [7] is: IC50 L858R/T790M/C797S, 100 μM ATP.
The mark [8] stands for this setting: ATP at Km, read-out: IC50 del19/T790M/C797S, Km ATP.
The mark [9] stands for this setting: ATP at Km, read-out: IC50 L858R/T790M/C797S, Km ATP.
Where [10] appears, read: ATP at Km, read-out: IC50 del19/C797S, Km ATP.
[11] abbreviates: ATP at Km, read-out: IC50 L858R/C797S, Km ATP.
Setting [12] is: ATP at Km, read-out: IC50 WT, Km ATP.
The mark [13] stands for this setting: IC50 del19/T790M/C797S (nM) 100 μM ATP, 100 μM ATP.
[14] abbreviates: Km ATP, read-out: IC50 del19/T790M/C797S (nM) Km ATP.
The mark [15] stands for this setting: IC50 L858R/T790M/C797S (nM) 100 μM ATP, 100 μM ATP.
[16] abbreviates: Km ATP, read-out: IC50 L858R/T790M/C797S (nM) Km ATP.
Where [17] appears, read: IC50 del19/C797S (nM) 100 μM ATP, 100 μM ATP.
Setting [18] is: Km ATP, read-out: IC50 del19/C797S (nM) Km ATP.
[19] abbreviates: IC50 L858R/C797S (nM) 100 μM ATP, 100 μM ATP.
Setting [20] is: Km ATP, read-out: IC50 L858R/C797S (nM) Km ATP.
Where [21] appears, read: IC50 WT (nM) 100 μM ATP, 100 μM ATP.
Where [22] appears, read: Km ATP, read-out: IC50 WT (nM) Km ATP.

Where two headings read alike, the source gives them in different places.

Sequence of EGFR wildtype (P00533 25-1210): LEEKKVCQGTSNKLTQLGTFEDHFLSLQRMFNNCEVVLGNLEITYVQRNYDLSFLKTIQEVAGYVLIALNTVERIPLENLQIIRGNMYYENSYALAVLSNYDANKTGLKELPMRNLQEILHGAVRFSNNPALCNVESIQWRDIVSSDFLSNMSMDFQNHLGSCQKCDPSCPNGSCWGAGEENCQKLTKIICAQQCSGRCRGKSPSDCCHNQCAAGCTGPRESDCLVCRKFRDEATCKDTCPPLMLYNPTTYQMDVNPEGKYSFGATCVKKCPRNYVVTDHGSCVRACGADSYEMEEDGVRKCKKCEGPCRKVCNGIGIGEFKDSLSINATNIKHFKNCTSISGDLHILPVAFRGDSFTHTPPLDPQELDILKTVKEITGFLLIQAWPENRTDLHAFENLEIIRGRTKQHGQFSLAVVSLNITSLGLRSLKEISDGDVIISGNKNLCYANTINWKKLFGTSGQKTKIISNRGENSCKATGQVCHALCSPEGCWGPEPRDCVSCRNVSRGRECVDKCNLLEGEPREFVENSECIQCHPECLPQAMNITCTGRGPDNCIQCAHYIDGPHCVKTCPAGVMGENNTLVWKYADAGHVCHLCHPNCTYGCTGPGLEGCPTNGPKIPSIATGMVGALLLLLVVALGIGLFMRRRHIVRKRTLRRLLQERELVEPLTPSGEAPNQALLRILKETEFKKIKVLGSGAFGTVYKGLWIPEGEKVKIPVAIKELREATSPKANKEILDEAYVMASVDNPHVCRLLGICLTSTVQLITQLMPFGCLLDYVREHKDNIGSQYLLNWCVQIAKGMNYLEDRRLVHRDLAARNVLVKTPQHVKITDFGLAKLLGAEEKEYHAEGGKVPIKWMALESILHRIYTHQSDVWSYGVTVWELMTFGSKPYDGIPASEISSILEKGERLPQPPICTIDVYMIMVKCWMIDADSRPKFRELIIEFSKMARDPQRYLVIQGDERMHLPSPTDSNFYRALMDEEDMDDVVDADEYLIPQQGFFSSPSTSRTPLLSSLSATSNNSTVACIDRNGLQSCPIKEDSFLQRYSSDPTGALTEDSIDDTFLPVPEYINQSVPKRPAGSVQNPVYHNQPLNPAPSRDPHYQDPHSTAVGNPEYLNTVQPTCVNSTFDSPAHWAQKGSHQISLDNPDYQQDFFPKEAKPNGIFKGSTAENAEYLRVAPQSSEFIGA
Sequence of EGFR del19/C797S (P00533 with tags, fused parts or gaps DEL746-750/C797S): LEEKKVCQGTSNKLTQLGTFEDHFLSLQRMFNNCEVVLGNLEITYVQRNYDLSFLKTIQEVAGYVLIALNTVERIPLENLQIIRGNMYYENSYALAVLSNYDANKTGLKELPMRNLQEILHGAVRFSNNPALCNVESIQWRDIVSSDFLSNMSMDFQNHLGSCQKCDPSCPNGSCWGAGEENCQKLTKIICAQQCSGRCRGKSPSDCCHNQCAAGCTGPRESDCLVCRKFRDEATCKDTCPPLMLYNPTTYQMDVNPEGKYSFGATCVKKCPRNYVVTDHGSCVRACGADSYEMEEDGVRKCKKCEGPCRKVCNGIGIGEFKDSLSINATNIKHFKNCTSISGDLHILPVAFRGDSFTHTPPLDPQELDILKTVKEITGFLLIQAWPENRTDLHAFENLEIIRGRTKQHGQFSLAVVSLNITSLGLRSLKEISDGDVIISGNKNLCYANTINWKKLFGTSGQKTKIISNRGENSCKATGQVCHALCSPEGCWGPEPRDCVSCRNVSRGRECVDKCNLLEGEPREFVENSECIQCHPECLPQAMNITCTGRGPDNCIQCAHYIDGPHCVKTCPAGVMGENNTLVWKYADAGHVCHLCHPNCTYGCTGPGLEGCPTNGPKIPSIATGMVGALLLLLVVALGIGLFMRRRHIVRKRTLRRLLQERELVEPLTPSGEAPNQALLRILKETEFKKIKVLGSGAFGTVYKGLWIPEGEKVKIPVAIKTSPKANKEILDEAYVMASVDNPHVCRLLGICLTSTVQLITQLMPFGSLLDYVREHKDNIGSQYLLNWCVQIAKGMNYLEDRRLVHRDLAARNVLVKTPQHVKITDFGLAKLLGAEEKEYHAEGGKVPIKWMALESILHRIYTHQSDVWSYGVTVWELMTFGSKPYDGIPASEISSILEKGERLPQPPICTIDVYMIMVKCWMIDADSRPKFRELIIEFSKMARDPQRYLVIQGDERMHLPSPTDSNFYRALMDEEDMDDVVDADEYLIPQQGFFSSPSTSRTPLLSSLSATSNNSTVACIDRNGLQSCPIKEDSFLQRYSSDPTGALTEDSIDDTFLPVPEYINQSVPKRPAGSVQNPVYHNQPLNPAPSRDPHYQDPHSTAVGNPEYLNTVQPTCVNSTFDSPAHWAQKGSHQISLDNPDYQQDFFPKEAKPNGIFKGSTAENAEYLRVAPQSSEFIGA
Sequence of EGFR L858R/C797S (P00533 25-1210 C797S/L858R): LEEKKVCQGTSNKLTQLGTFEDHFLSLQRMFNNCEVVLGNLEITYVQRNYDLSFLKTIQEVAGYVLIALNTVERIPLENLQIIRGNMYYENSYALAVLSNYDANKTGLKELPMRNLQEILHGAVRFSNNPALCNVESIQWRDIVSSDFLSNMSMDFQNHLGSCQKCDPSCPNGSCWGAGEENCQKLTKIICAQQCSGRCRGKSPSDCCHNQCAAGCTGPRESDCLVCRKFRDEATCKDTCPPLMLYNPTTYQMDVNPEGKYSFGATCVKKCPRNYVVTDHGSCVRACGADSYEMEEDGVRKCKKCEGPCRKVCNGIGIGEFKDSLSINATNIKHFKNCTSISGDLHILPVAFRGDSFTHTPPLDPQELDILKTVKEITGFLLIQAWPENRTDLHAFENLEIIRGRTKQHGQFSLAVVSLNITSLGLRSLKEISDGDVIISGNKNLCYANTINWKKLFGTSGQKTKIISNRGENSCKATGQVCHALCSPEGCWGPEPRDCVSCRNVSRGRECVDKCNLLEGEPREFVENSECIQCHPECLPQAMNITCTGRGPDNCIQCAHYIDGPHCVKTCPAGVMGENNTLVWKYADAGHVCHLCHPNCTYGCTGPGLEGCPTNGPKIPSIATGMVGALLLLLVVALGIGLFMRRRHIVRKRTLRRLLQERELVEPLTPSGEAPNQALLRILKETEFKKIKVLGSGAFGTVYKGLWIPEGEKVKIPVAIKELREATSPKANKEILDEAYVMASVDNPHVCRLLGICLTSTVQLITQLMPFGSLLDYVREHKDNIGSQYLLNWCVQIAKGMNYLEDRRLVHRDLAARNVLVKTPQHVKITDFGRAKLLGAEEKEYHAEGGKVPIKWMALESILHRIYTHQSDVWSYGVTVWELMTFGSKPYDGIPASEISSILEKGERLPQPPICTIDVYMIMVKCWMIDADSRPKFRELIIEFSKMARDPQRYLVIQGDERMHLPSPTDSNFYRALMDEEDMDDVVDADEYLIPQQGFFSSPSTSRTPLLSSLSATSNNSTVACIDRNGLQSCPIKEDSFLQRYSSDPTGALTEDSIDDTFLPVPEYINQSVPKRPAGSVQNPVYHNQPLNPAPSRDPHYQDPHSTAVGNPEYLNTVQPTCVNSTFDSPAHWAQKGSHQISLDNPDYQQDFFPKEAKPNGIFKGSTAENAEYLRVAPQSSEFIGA
Sequence of EGFR del19/T790M/C797S (P00533 with tags, fused parts or gaps DEL746-750/T790M/C797S): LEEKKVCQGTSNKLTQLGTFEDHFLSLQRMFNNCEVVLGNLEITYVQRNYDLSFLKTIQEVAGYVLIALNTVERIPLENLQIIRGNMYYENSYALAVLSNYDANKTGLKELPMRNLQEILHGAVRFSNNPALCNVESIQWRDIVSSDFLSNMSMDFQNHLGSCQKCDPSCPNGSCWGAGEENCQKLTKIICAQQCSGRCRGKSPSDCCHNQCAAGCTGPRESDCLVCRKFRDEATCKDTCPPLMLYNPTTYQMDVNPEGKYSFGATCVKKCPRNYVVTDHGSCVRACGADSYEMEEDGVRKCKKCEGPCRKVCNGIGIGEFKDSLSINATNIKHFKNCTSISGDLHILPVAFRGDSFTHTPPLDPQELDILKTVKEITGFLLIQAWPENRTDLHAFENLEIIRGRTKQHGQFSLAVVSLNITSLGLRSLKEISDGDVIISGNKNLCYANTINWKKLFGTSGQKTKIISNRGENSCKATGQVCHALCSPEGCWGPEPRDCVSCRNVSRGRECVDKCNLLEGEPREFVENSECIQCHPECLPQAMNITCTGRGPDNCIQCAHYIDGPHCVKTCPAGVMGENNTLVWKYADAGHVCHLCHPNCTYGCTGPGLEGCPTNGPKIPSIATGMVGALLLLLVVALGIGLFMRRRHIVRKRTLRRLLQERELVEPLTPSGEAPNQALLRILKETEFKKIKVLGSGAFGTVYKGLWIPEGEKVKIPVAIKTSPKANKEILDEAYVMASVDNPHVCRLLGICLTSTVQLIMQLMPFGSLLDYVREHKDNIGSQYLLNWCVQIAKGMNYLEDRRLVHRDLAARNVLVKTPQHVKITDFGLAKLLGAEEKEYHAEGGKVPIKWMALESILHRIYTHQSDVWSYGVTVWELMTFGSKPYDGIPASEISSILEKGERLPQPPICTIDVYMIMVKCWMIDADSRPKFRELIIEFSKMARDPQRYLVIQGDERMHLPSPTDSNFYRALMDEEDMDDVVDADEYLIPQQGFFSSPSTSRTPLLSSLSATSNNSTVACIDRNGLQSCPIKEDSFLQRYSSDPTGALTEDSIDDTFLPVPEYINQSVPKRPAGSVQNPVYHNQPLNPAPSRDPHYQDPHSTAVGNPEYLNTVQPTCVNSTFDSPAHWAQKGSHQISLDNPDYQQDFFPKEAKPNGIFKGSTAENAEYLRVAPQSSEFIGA

As to `O=S(=O)(C1CC1)n1cc(-c2nccc(Nc3cc(N[C@H]4CC[C@@H](CO)CC4)c(-c4ccnc(N[C@H]5CC[C@@H](CO)CC5)n4)cn3)n2)cn1` [Example 192, ((1s,4s)-4-((4-(6-((2-(1-(Cyclopropylsulfonyl)-1H-pyrazol-4-yl)pyrimidin-4-yl)amino)-4-(((1s,4s)-4-(hydroxymethyl)cyclohexyl)amino)pyridin-3-yl)pyrimidin-2-yl)amino)cyclohexyl)methanol], the IC50 in assay [1] (setting [6]) amounted to 0.6 nM; in assay [2] (setting [7]), 0.5 nM; in assay [3] (IC50 del19/C797S, 100 μM ATP), 2 nM; in assay [4] (IC50 L858R/C797S, 100 μM ATP), 7.8 nM; in assay [5] (IC50 WT, 100 μM ATP), 6510 nM.
For `CN1CC(Oc2ccc(-c3cnc(Nc4ccnc(-c5cnn(S(=O)(=O)C6CC6)c5)n4)cc3N[C@H]3CC[C@@](C)(O)CC3)nc2)C1` [Example 289, (1s,4s)-4-((6′-((2-(1-(Cyclopropylsulfonyl)-1H-pyrazol-4-yl)pyrimidin-4-yl)amino)-5-((1-methylazetidin-3-yl)oxy)-[2,3′-bipyridin]-4′-yl)amino)-1-methylcyclohexan-1-ol], the IC50 in assay [1] (setting [8]) was found to be 0.2 nM; in assay [1] (setting [6]), 0.2 nM; in assay [2] (setting [9]) it was 0.1 nM; in assay [2] (setting [7]), 0.1 nM; in assay [3] (setting [10]), 0.1 nM; in assay [3] (IC50 del19/C797S, 100 μM ATP) it was 0.2 nM. For the same molecule, the IC50 in assay [4] (setting [11]) worked out at 0.1 nM; in assay [4] (IC50 L858R/C797S, 100 μM ATP) it was 0.8 nM; in assay [5] (setting [12]), 0.3 nM; in assay [5] (IC50 WT, 100 μM ATP), 206 nM.
Regarding `CN(C)CCOc1ccc(-c2cnc(Nc3ccnc(-c4cnn(S(=O)(=O)C5CC5)c4)n3)cc2N[C@H]2CC[C@@](C)(O)CC2)nc1` [Example 208, (1s,4s)-4-((6′-((2-(1-(Cyclopropylsulfonyl)-1H-pyrazol-4-yl)pyrimidin-4-yl)amino)-5-(2-(dimethylamino)ethoxy)-[2,3′-bipyridin]-4′-yl)amino)-1-methylcyclohexan-1-ol], the IC50 stood at 0.1 nM in assay [1] (setting [8]); 0.2 nM in assay [1] (setting [6]); 0.1 nM in assay [2] (setting [9]); 0.2 nM in assay [2] (setting [7]); 0.2 nM in assay [3] (setting [10]); 0.3 nM in assay [3] (IC50 del19/C797S, 100 μM ATP). Moreover, the IC50 turned out to be 0.1 nM in assay [4] (setting [11]); 0.6 nM in assay [4] (IC50 L858R/C797S, 100 μM ATP); 0.3 nM in assay [5] (setting [12]); 243 nM in assay [5] (IC50 WT, 100 μM ATP).
As for `CC(C)(O)[C@H]1CC[C@@H](Nc2cc(Nc3ccnc(-c4cnn(S(=O)(=O)C5CC5)c4)n3)ncc2-c2ccc(CN3CCOCC3)cn2)CC1` [Example 25, 2-((1s,4s)-4-((6′-((2-(1-(Cyclopropylsulfonyl)-1H-pyrazol-4-yl)pyrimidin-4-yl)amino)-5-(morpholinomethyl)-[2,3′-bipyridin]-4′-yl)amino)cyclohexyl)propan-2-ol], the IC50 in assay [1] (setting [13]) amounted to 1.1 nM; in assay [1] (setting [14]), 1 nM; in assay [2] (setting [15]) it was 1.2 nM; in assay [2] (setting [16]), 0.8 nM; in assay [3] (setting [17]), 0.5 nM; in assay [3] (setting [18]), 0.5 nM. Also, the IC50 in assay [4] (setting [19]) came out at 2 nM; in assay [4] (setting [20]), 0.3 nM; in assay [5] (setting [21]), 1830 nM; in assay [5] (setting [22]) it was 1.9 nM.
Consider `C[C@]1(O)CC[C@@H](Nc2cc(Nc3ccnc(-c4cnn(S(=O)(=O)C5CC5)c4)n3)ncc2-c2ccc(F)cn2)CC1` [Example 6, (1s,4s)-4-((6′-((2-(1-(Cyclopropylsulfonyl)-1H-pyrazol-4-yl)pyrimidin-4-yl)amino)-5-fluoro-[2,3′-bipyridin]-4′-yl)amino)-1-methylcyclohexan-1-ol], for which the IC50 in assay [1] (setting [13]) is 0.1 nM; in assay [1] (setting [14]) it was 0.2 nM; in assay [2] (setting [15]), 0.1 nM; in assay [3] (setting [17]), 0.4 nM; in assay [3] (setting [18]), 0.2 nM; in assay [4] (setting [19]), 6.5 nM. Moreover, the IC50 in assay [4] (setting [20]) is 0.3 nM; in assay [5] (setting [21]), over 10000 nM.
On to `C[C@]1(O)CC[C@@H](Nc2cc(Nc3ccnc(-c4cnn(S(=O)(=O)C5CC5)c4)n3)ncc2-c2ccc(N3CC(F)(F)C3)nn2)CC1` [Example 66, (1s,4s)-4-((2-((2-(1-(Cyclopropylsulfonyl)-1H-pyrazol-4-yl)pyrimidin-4-yl)amino)-5-(6-(3,3-difluoroazetidin-1-yl)pyridazin-3-yl)pyridin-4-yl)amino)-1-methylcyclohexan-1-ol], for which the IC50 turned out to be 0.5 nM in assay [1] (setting [13]); 0.3 nM in assay [1] (setting [14]); 0.5 nM in assay [2] (setting [15]); 0.1 nM in assay [2] (setting [16]); 0.9 nM in assay [3] (setting [17]); 0.4 nM in assay [3] (setting [18]). In addition, the IC50 in assay [4] (setting [19]) was 12.2 nM; in assay [4] (setting [20]), 0.5 nM; in assay [5] (setting [21]), over 10000 nM; in assay [5] (setting [22]), 11.5 nM.
On to `Cc1cc(-c2cnc(Nc3ccnc(-c4cnn(S(=O)(=O)C5CC5)c4)n3)cc2N[C@H]2CC[C@@](C)(O)CC2)nnc1C` [Example 50, (1s,4s)-4-((2-((2-(1-(Cyclopropylsulfonyl)-1H-pyrazol-4-yl)pyrimidin-4-yl)amino)-5-(5,6-dimethylpyridazin-3-yl)pyridin-4-yl)amino)-1-methylcyclohexan-1-ol], for which the IC50 in assay [1] (setting [13]) was found to be 0.2 nM; in assay [1] (setting [14]) it was 0.3 nM; in assay [2] (setting [15]), 0.1 nM; in assay [2] (setting [16]) it was 0.1 nM; in assay [3] (setting [18]) it was 0.5 nM; in assay [4] (setting [19]) it was 2.2 nM. Moreover, the IC50 was 0.4 nM in assay [4] (setting [20]) and over 10000 nM in assay [5] (setting [21]).
Regarding `CN(C)C[C@H]1CC[C@@H](Nc2cc(Nc3ccnc(-c4cnn(S(=O)(=O)C5CC5)c4)n3)ncc2-c2cnc(N3CCC(F)(F)CC3)cn2)CC1` [Example 74, N^2-(2-(1-(Cyclopropylsulfonyl)-1H-pyrazol-4-yl)pyrimidin-4-yl)-5-(5-(4,4-difluoropiperidin-1-yl)pyrazin-2-yl)-N^4-((1s,4s)-4-((dimethylamino)methyl)cyclohexyl)pyridine-2,4-diamine], the IC50 in assay [1] (setting [13]) was determined as 2.2 nM; in assay [1] (setting [14]), 1.6 nM; in assay [2] (setting [15]) it was 2.8 nM; in assay [2] (setting [16]), 0.6 nM; in assay [3] (setting [17]) it was 2.4 nM; in assay [3] (setting [18]), 0.7 nM. Besides, the IC50 in assay [4] (setting [19]) is 43.9 nM; in assay [4] (setting [20]) it was 3.2 nM; in assay [5] (setting [21]), 1610 nM; in assay [5] (setting [22]) it was 9.1 nM.
`C[C@]1(O)CC[C@@H](Nc2cc(Nc3ccnc(-c4cnn(S(=O)(=O)C5CC5)c4)n3)ncc2-c2cccc(CC(F)(F)F)n2)CC1` [Example 293, (1s,4s)-4-((6′-((2-(1-(Cyclopropylsulfonyl)-1H-pyrazol-4-yl)pyrimidin-4-yl)amino)-6-(2,2,2-trifluoroethyl)-[2,3′-bipyridin]-4′-yl)amino)-1-methylcyclohexan-1-ol]: the IC50 in assay [1] (setting [8]) came out at 0.7 nM; in assay [1] (setting [6]), 3.4 nM; in assay [2] (setting [9]), 0.7 nM; in assay [3] (setting [10]) it was 9.6 nM; in assay [3] (IC50 del19/C797S, 100 μM ATP) it was 16.2 nM; in assay [4] (setting [11]), 15.4 nM. Further, the IC50 came out at 63 nM in assay [4] (IC50 L858R/C797S, 100 μM ATP); 138 nM in assay [5] (setting [12]); 1540 nM in assay [5] (IC50 WT, 100 μM ATP).
For the molecule `CC(C)(F)c1ccc(-c2cnc(Nc3ccnc(-c4cnn(S(=O)(=O)C5CC5)c4)n3)cc2NC2CCC(F)CC2)nc1` (centres unmarked) [Example 239, N^6′-(2-(1-(Cyclopropylsulfonyl)-1H-pyrazol-4-yl)pyrimidin-4-yl)-N^4′-(4-fluorocyclohexyl)-5-(2-fluoropropan-2-yl)-[2,3′-bipyridine]-4′,6′-diamine], the IC50 in assay [1] (setting [8]) worked out at 15.1 nM; in assay [2] (setting [9]) it was 3.9 nM; in assay [3] (setting [10]), 72.7 nM; in assay [4] (setting [11]), 31.6 nM; in assay [5] (setting [12]) it was 216 nM.
With `CC(C)(O)[C@H]1CC[C@@H](Nc2cc(Nc3ccnc(-c4cnn(S(=O)(=O)C5CC5)c4)n3)ncc2-c2cnc(N3CCC(F)(F)CC3)cn2)CC1` [Example 72, 2-((1s,4s)-4-((2-((2-(1-(Cyclopropylsulfonyl)-1H-pyrazol-4-yl)pyrimidin-4-yl)amino)-5-(5-(4,4-difluoropiperidin-1-yl)pyrazin-2-yl)pyridin-4-yl)amino)cyclohexyl)propan-2-ol], the IC50 in assay [1] (setting [13]) came to 12.7 nM; in assay [1] (setting [14]) it was 10.7 nM; in assay [2] (setting [15]) it was 12.2 nM; in assay [2] (setting [16]), 1.7 nM; in assay [3] (setting [17]) it was 21.7 nM; in assay [3] (setting [18]), 22.4 nM. Moreover, the IC50 in assay [4] (setting [19]) was 2430 nM; in assay [4] (setting [20]) it was 61.4 nM; in assay [5] (setting [21]), over 10000 nM; in assay [5] (setting [22]), 84.2 nM.

Source of the values: US12258328B2, “6-membered heteroaryl-containing aminopyridine compounds as EGFR inhibitors” (YUHAN CORPORATION, priority 2021, dated 2025).
